The results in this text go back to ChEMBL document CHEMBL2176907, “Identification of multiple 5-HT₄ partial agonist clinical candidates for the treatment of Alzheimer's disease” (J Med Chem, 2012).

The nature of data set [1]: Apparent permeability from apical to basal side of RRCK cells at 2 uM after 2 hrs by transwell assay. The format is ADME, cell-based, Canis lupus familiaris, MDCKII-LE. The following applies: dog, MDCK.
In a further data set the target is CYP2D6 (Homo sapiens, UniProt P10635). Description: Inhibition of CYP2D6 in human liver microsomes using dextromethorphan as substrate at 3 uM. The format is ADME, Microsome. The following applies: probe dextromethorphan.
A short description of data set [2]: Intrinsic clearance in human liver microsomes. The settings on record: read-out: CLH. The format is ADME, Microsome. For orientation: Liver microsomes are a subcellular fraction often used to study metabolism.
Data set [3] concerns the target T1, 5-hydroxytryptamine receptor 4 (Homo sapiens, UniProt Q13639). Description: Agonist activity at human 5HT4D receptor expressed in HEK293 cells assessed as cAMP production after 30 mins by HTRF assay relative to 5HT. It is filed as functional, cell-based.
Data set [4] deals with T1, 5-hydroxytryptamine receptor 4. In words: Agonist activity at human 5HT4D receptor expressed in HEK293 cells assessed as cAMP production after 30 mins by HTRF assay. The format is functional, cell-based. (In general: Changes in cAMP serve as a functional read-out for many G protein-coupled receptors.)
For another data set, the system named is MDR1. In words: in vitro. The settings on record: dog, MDCK-MDR1.
In data set [5] the target is T1, 5-hydroxytryptamine receptor 4. Description: biochemical.
Description: Displacement of [3H]GR113808 from human 5HT4D receptor expressed in HEK293 cells after 30 mins by liquid scintillation counting
Data set [6] can be described thus: Intrinsic clearance in dog liver microsomes. The format is ADME, Canis lupus familiaris, Microsome. The following applies: read-out: CLH.
The nature of data set [7]: Oral bioavailability in dog. The following applies: in vivo. It is filed as ADME, organism-based, Canis lupus familiaris.
Data set [8] is described as follows: Intrinsic clearance in rat liver microsomes. It is filed as ADME, Microsome. The following applies: read-out: CLH.
A short description of data set [9]: Oral bioavailability in rat. The settings on record: in vivo. The format is ADME, organism-based.
A short description of data set [10]: Clearance in iv dosed dog. It is filed as ADME, organism-based, Canis lupus familiaris. The following applies: in vivo.
The nature of data set [11]: Clearance in iv dosed rat. The format is ADME, organism-based. The settings on record: in vivo.
Data set [12] concerns Canis familiaris. Description: Gastrointestinal toxicity in beagle dog assessed as decrease in food intake administered as repeated dose for 7 days measured up to 14 days. It is filed as organism-based, Canis lupus familiaris. The following applies: in vivo.
Data set [13] concerns Rattus norvegicus. In words: Gastrointestinal toxicity in Sprague-Dawley rat assessed as decrease in food intake administered as repeated dose for 7 days measured up to 14 days. The format is organism-based. The following applies: in vivo.
The subject of data set [14] is Rattus norvegicus. Description: Gastrointestinal toxicity in male Sprague-Dawley rat assessed as mucosal injury at 100 mg/kg administered as repeated dose for 7 days measured up to 14 days. It is filed as organism-based. On the set-up: dose 100 mg/kg. The settings on record: in vivo.
Data set [15] deals with Rattus norvegicus. In words: Gastrointestinal toxicity in female Sprague-Dawley rat assessed as mucosal injury at 30 mg/kg administered as repeated dose for 7 days measured up to 14 days. It is filed as organism-based. On the set-up: dose 30 mg/kg. The following applies: in vivo.
The subject of data set [16] is Rattus norvegicus. Description: Gastrointestinal toxicity in male Sprague-Dawley rat assessed as reduction in body weight at 100 mg/kg administered as repeated dose for 7 days measured up to 14 days. The format is organism-based. Details: dose 100 mg/kg. The settings on record: in vivo.
The subject of data set [17] is Rattus norvegicus. Description: Gastrointestinal toxicity in female Sprague-Dawley rat assessed as reduction in body weight at 30 mg/kg administered as repeated dose for 7 days measured up to 14 days. Details: dose 30 mg/kg. The format is organism-based. The settings on record: in vivo.
Data set [18] has as its system Canis familiaris. Description: Gastrointestinal toxicity in beagle dog assessed as emesis at 20 mg/kg administered as repeated dose for 7 days measured up to 14 days. Details: dose 20 mg/kg. The settings on record: in vivo. It is filed as organism-based, Canis lupus familiaris.
The test system of data set [19] is Canis familiaris. In words: Cardiotoxicity in beagle dog assessed as increase in systolic blood pressure at 0.1 mg/kg administered as repeated dose for 7 days measured up to 1 month. The settings on record: in vivo, 168 h. The format is toxicity, organism-based, Canis lupus familiaris, Artery. On the set-up: dose 0.1 mg/kg.
Data set [20] deals with Canis familiaris. Description: Neurotoxicity in beagle dog assessed as convulsions at 30 mg/kg administered as repeated dose for 7 days measured up to 14 days. The settings on record: in vivo. On the set-up: dose 30 mg/kg. It is filed as toxicity, organism-based, Canis lupus familiaris.
Data set [21] relates to Rattus norvegicus. Description: Receptor occupancy of 5HT4 receptor in Sprague-Dawley rat brain at 5 mg/kg, sc up to 4 hrs. It is filed as functional. The following applies: route subcutaneous.
Data set [22] relates to Rattus norvegicus. Description: Procognitive activity in Sprague-Dawley rat assessed as increase in acetylcholine level in prefrontal cortex at 5 mg/kg, sc after 3 hrs by brain microdialysis relative to control. Details: dose 5 mg/kg. It is filed as functional, organism-based.
Data set [23] addresses 5-hydroxytryptamine receptor 4 (Rattus norvegicus) (UniProt Q62758). In words: Agonist activity at 5HT4 receptor in rat oesophagus assessed as reversal of carbamylcholine-induced contraction at 10 uM incubated at 7 mins post carbamylcholine-challenge measured after 30 mins relative to 5HT. The format is functional.
Data set [24] concerns Rattus norvegicus. In words: Displacement of [3H]SB207145 from 5HT4 receptor in sc dosed Sprague-Dawley rat striatal membrane incubated for 45 mins prior to [3H]SB207145-adminsitration measured after 15 mins. The format is functional, organism-based. The following applies: Striatum.
Data set [25] can be described thus: Ratio of free drug concentration in brain to free drug concentration in plasma in sc dosed Sprague-Dawley rat. The format is ADME, organism-based. The settings on record: read-out: K(p,uu,brain).
For another data set, the system named is Plasma. In words: Free AUC (0 to 4 hrs) in sc dosed Sprague-Dawley rat plasma by LC-MS/MS analysis. The format is ADME, organism-based. The settings on record: in vivo.
The next data set concerns Brain. Description: Free AUC (0 to 4 hrs) in sc dosed Sprague-Dawley rat brain by LC-MS/MS analysis. It is filed as ADME, organism-based. The following applies: in vivo.
The target in data set [26] is T2, 5-hydroxytryptamine receptor 4 (Rattus norvegicus, UniProt Q62758).
Description: Agonist activity at rat 5HT4E receptor expressed in HEK293 cells assessed as increase in cAMP production after 30 mins by HTRF assay
Data set [27] has as its target T2, 5-hydroxytryptamine receptor 4. The source holds these as a separate data set.
Description: Agonist activity at rat 5HT4S receptor expressed in HEK293 cells assessed as increase in cAMP production after 30 mins by HTRF assay
Data set [28] has the same target. The source holds these as a separate data set.
Description: Agonist activity at rat 5HT4L receptor expressed in HEK293 cells assessed as increase in cAMP production after 30 mins by HTRF assay
Data set [29] concerns the target T1, 5-hydroxytryptamine receptor 4.
Description: Agonist activity at human 5HT4E receptor expressed in HEK293 cells assessed as increase in cAMP production after 30 mins by HTRF assay
Data set [30] shares this target. This is another data set of the same source.
Description: Agonist activity at human 5HT4B receptor expressed in HEK293 cells assessed as increase in cAMP production after 30 mins by HTRF assay
For data set [31] the target is unchanged. The source holds these as a separate data set.
Description: Agonist activity at human 5HT4A receptor expressed in HEK293 cells assessed as increase in cAMP production after 30 mins by HTRF assay
Data set [32] has as its target T2, 5-hydroxytryptamine receptor 4. This is another data set of the same source.
Description: Displacement of [3H]GR113808 from 5HT4 receptor in rat striatal membrane after 30 mins by liquid scintillation counting
The target in data set [33] is T1, 5-hydroxytryptamine receptor 4. Description: biochemical. This is another data set of the same source.
Description: Displacement of [3H]GR113808 from human 5HT4E receptor expressed in CHO cells after 30 mins by liquid scintillation counting
Data set [34] shares this target. Description: biochemical. The source holds these as a separate data set.
Description: Displacement of [3H]GR113808 from human 5HT4B receptor expressed in HEK293 cells after 30 mins by liquid scintillation counting
The target is the same in data set [35]. Description: biochemical. This is another data set of the same source.
Description: Displacement of [3H]GR113808 from human 5HT4A receptor expressed in HEK293 cells after 30 mins by liquid scintillation counting

Active and inactive are the calls of the source. The rule behind the calls is not given here.

T1 sequence (Q13639 whole entry): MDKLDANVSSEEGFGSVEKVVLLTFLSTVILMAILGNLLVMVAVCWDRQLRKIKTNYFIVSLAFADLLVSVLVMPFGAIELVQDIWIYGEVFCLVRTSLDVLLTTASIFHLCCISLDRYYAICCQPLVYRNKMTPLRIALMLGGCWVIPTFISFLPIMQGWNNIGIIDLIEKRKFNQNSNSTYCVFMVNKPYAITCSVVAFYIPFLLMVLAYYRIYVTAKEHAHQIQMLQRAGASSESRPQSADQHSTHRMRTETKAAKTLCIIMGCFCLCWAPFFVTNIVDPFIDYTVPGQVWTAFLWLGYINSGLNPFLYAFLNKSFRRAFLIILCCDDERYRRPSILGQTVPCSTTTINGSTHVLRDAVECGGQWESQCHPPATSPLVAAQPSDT
Chain of CYP2D6 (P10635 whole entry): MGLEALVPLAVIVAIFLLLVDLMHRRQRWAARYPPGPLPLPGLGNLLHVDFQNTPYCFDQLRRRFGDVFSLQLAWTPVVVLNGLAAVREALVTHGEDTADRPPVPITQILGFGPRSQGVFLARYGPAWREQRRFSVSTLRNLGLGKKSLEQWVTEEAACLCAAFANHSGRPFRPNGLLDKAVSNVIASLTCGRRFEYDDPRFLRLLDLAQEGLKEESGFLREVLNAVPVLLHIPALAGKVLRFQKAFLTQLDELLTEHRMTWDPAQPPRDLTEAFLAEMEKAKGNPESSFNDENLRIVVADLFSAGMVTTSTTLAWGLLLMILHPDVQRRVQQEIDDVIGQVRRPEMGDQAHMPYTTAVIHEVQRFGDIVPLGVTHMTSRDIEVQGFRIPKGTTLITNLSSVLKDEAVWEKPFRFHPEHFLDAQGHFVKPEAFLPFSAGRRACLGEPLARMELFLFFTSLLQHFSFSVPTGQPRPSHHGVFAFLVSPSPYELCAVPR
T2 sequence (Q62758 whole entry): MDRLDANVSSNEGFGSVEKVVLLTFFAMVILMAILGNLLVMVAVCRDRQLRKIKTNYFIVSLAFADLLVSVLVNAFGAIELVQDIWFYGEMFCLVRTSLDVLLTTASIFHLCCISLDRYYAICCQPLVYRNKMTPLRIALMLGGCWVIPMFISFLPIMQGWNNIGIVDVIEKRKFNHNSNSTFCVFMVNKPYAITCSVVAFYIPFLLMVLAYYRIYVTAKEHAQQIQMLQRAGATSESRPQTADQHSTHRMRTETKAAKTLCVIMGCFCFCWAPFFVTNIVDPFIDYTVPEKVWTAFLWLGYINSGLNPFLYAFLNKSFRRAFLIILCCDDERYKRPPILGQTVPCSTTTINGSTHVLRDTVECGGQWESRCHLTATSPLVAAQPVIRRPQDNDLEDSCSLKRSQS
Chain of 5-hydroxytryptamine receptor 4 (Rattus norvegicus) (Q62758 whole entry): as above
Description for MDR1: Efflux ratio of permeability from basal to apical to apical to basal side of MDCK cells expressing MDR1 at 2 uM after 5 hrs by transwell assay

By Papp A→B is commonly meant the apparent permeability from the apical to the basolateral side of a cell layer. Broadly, the inhibition is how much of the control response was suppressed. A lower inhibition goes with a weak effect. One may read the Emax as the size of the effect at its maximum, as opposed to the concentration needed. In general, EC50 refers to the concentration at which the effect is half-maximal. What is called efflux ratio is the permeability from basolateral to apical divided by that in the opposite direction, in the common usage. The term Ki denotes a dissociation constant, usually derived from enzyme kinetics or from competition with a known ligand. Read a high Ki as lower affinity. Consider `O[C@@H]1CC[C@@H](Oc2cccc3onc(OCC4CCN(CC5(O)CCOCC5)CC4)c23)C1`, for which, in [1], the Papp A→B at 2 h, 2 µM came out at 15 ×10⁻⁶ cm/s. This compound registered an inhibition at 3 µM at CYP2D6 of 37%. Moreover, the CLint scaled in data set [2] is 56 mL/min/kg. Besides, the Emax in [3] is 28%. Also, the EC50 in [4] came out at 0.4 nM. The efflux ratio at 5 h, 2 µM with MDR1 was 2.2. Also, the affinity in data set [5], expressed as Ki, was 0.5 nM.
In the case of `CCCCN1CCC(COc2noc3cccc(OCC4CCC4)c23)CC1`, on CYP2D6, the inhibition at 3 µM is 93%.
Consider `CC(C)COc1cccc2onc(OCC3CCN(CC4(O)CCOCC4)CC3)c12`, for which, in data set [1], the Papp A→B at 2 h, 2 µM is 3.8 ×10⁻⁶ cm/s. Also, the inhibition at 3 µM on CYP2D6 was found to be 54%. Moreover, the CLint scaled in [2] was determined as 72 mL/min/kg. The Emax in data set [3] turned out to be 85%. Also, the EC50 in [4] was 0.98 nM. Besides, in [5], affinity was put at a Ki of 0.36 nM.
For `CCCCN1CCC(COc2noc3cccc(OC4CCCC4)c23)CC1`, in data set [1], the Papp A→B at 2 h, 2 µM came out at 2.4 ×10⁻⁶ cm/s. The compound further registered an inhibition at 3 µM against CYP2D6 of 79%. Further, the CLint scaled in data set [2] amounted to 77 mL/min/kg. For the same compound, in [3], the Emax turned out to be 81%. Besides, the concentration for a half-maximal effect (EC50) in data set [4] was determined as 1.2 nM. Further, the inhibition constant Ki in data set [5] was determined as 0.74 nM.
As a reminder, the bioavailability is the share of a dose that reaches the circulation, judged against a reference dose that is usually intravenous. Low values mean little systemic uptake, high ones much systemic uptake. As a reminder, the clearance is the rate of elimination divided by the concentration. Read a high clearance as a high capacity for elimination. `CC(C)n1c(=O)n(C(=O)NCC2CCN(CC3(O)CCOCC3)CC2)c2cc(F)ccc21`: the CLint scaled in data set [6] was less than 5.6 mL/min/kg; in [8] it was 45.2 mL/min/kg; in data set [2], 24.3 mL/min/kg. Also, the bioavailability came out at 100% in data set [7] and 40% in data set [9]. The clearance was found to be 40 mL/min/kg in [10] and 12.6 mL/min/kg in data set [11]. In addition, the Activity result in the data set on Canis familiaris [12], in the data set on Rattus norvegicus [13], in the data set on Rattus norvegicus [14], in the data set on Rattus norvegicus [15], in the data set with Rattus norvegicus [16] and in the data set with Rattus norvegicus [17] was “Toxic” in each case. Besides, the Activity entry is “Toxic” with Canis familiaris [18]; “Toxic” with Canis familiaris [19]; “Toxic” in the data set with Canis familiaris [20]; 70% in data set [23]; “Dose-dependent effect” in the data set on Rattus norvegicus [24]. The same compound came in with an Occ with Rattus norvegicus [21] greater than 90%. For the same compound, the outcome in the data set with Rattus norvegicus [22] was Active. Moreover, the Kp uu in data set [25] worked out at 1.6. The fAUC in the data set on Plasma stood at 0.0276 µM·h; in the data set on Brain, 0.0443 µM·h. For the same compound, the Papp A→B at 2 h, 2 µM in data set [1] stood at 21.9 ×10⁻⁶ cm/s. The maximum response (Emax) in [3] amounted to 86%. Further, the EC50 in [4] came to 0.9 nM; in [26] it was 1.59 nM; in [27], 0.9 nM; in [28], 0.96 nM; in data set [29], 0.98 nM; in data set [30], 1.2 nM. In data set [31], this compound showed an EC50 of 0.38 nM. Moreover, the inhibitory constant (Ki) in data set [32] was found to be 1.5 nM; in data set [33], 4.9 nM; in [34], 5.5 nM; in [35], 4.4 nM; in data set [5], 1.7 nM. In addition, the efflux ratio at 5 h, 2 µM with MDR1 turned out to be 1.41.
